Reference: US20230310636A1, “COMBINATION THERAPIES FOR TREATMENT OF CANCER WITH THERAPEUTIC BINDING MOLECULES” (MedImmune Limited, priority 2022, published 2023)

Key:
[1] = preclinical models; cited from earlier work
[2] = system: MDA-MB-468 breast cancer xenografts; assay: MDA-MB-468 breast cancer xenograft, ADC with AZD5305; format: in vivo, mice; conditions: AZD5305 individually, 0.1 mg/kg and 1 mg/kg, once daily oral, 28 days; FIG. 7
Protocol: MDA-MB-468 cells were injected 5×10^6 per mouse into the mammary fat pad of female CB-17 SCID mice. […] Tumor and body weight measurements were recorded twice weekly for the duration of the study.
All animal experiments were conducted in a facility accredited by the Association for Assessment and Accreditation of Laboratory Animal Care under the guidelines of AstraZeneca's Institutional Animal Care and Use Committee and appropriate animal research approvals. Cell line xenograft models were established through subcutaneous implantation of cells in 50% Matrigel (Corning, Corning, NY, USA) in either the right mammary fat pad (MX-1, MDA-MB-468) or left flank (HT29, HT29-huB7-H4) of female CB-17 mice (Envigo, Frederick, MD, USA). When tumor volume reached 150-200 mm^3, mice were randomized and given a single intravenous (IV) injection of vehicle control (20 mM histidine, pH 6; 240 mM sucrose; 0.02% PS-80) or ADCs. Body weight and tumor measurements were determined once or twice weekly, and tumor volume was calculated with the formula

Compound: CCc1cc2ncc(CN3CCN(c4ccc(C(=O)NC)nc4)CC3)cc2[nH]c1=O [AZD5305, 5-[4-[(7-ethyl-6-oxo-5H-1,5-naphthyridin-3-yl)methyl]piperazin-1-yl]-N-methyl-pyridine-2-carboxamide]
- hematological toxicity in comparison with non-selective PARPi [1]: reduced hematological toxicity
- anti-tumor activity in vivo (tumor size over time) [2]: little to no anti-tumor activity
